ChEMBL document CHEMBL6109152, “Harnessing the SPOP E3 Ubiquitin Ligase via a Bridged Proteolysis Targeting Chimera (PROTAC) Strategy for Targeted Protein Degradation” (J Med Chem, 2025)
The source made the active and inactive calls. No cut-off for these calls is given here.

Legend:
[1] = molecular target: T1, Speckle-type POZ protein-Bromodomain-containing protein 4 (Homo sapiens, UniProt O60885+O43791); test: PROTAC activity at SPOP/BRD4-S in human HT-29 cells assessed as induction of BRD4 short isoform degradation at 0.5 to 5 uM incubated for 24 hrs by Western blotting analysis; format: cell-based; conditions: dose 0.5-5 µM
[2] = molecular target: T1, Speckle-type POZ protein-Bromodomain-containing protein 4; test: PROTAC activity at SPOP/BRD4-L in human HT-29 cells assessed as induction of BRD4 long isoform degradation at 0.5 to 5 uM incubated for 24 hrs by Western blotting analysis; format: cell-based; conditions: dose 0.5-5 µM
HT-29 [3] = test: Binding affinity to BRD4-S/GLP/SPOP in human HT-29 cells assessed as compound-BRD4-GLP-SPOP quaternary complex formation at 20 to 100 uM incubated for 1 hrs by pulldown based Western blot analysis; format: cell-based; conditions: dose 20-100 µM
HEK293T = test: Binding affinity to BRD4-S/GLP/SPOP in HEK293T cells assessed as compound-BRD4-GLP-SPOP quaternary complex formation at 20 to 100 uM incubated for 1 hrs by pulldown based Western blot analysis; format: cell-based; conditions: Homo sapiens, dose 20-100 µM
[4] = molecular target: T1, Speckle-type POZ protein-Bromodomain-containing protein 4; test: PROTAC activity at SPOP/BRD4-S in human HT-29 cells assessed as induction of BRD4 short isoform degradation at 5 uM incubated for 24 hrs by Western blotting analysis relative to control; format: cell-based
HT-29 [5] = test: Effect on BRD4 long isoform mRNA expression level in human HT-29 cells at 5 uM incubated for 24 hrs by RT-qPCR analysis; format: functional, cell-based
HT-29 [6] = test: Antiproliferative activity against human HT-29 cells assessed as reduction in cell growth up to 10 uM incubated for 3 days by WST-8 reagent based assay; format: functional; conditions: time 3.0 day
HT-29 [7] = test: Effect on BRD4 short isoform mRNA expression level in human HT-29 cells at 5 uM incubated for 24 hrs by RT-qPCR analysis; format: functional, cell-based
HT-29 [8] = test: Effect on c-MYC mRNA expression level in human HT-29 cells at 5 uM incubated for 24 hrs by RT-qPCR analysis; format: functional, cell-based
HT-29 [9] = test: Effect on BRD2 mRNA expression level in human HT-29 cells at 5 uM incubated for 24 hrs by RT-qPCR analysis; format: functional, cell-based
HT-29 [10] = test: Effect on BRD3 mRNA expression level in human HT-29 cells at 5 uM incubated for 24 hrs by RT-qPCR analysis; format: functional, cell-based

T1 sequence (O43791 whole entry, looked up, other chains not shown, canonical isoform): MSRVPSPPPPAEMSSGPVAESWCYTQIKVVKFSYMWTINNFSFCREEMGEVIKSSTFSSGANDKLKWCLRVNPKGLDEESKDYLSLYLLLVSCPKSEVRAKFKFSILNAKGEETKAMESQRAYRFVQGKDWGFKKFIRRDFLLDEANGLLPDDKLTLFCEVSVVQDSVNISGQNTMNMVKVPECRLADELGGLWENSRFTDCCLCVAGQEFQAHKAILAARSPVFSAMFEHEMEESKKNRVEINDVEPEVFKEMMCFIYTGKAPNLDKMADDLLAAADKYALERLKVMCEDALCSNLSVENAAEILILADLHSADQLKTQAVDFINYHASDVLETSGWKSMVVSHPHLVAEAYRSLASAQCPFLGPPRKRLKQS

| Activity [1] | Activity [2] | Structure (SMILES) | also measured |
| --- | --- | --- | --- |
| Active | inactive | COc1cc2c(NC3CCN(CCCC(=O)NCCCCCCCCNC(=O)C[C@@H]4N=C(c5ccc(Cl)cc5)c5c(sc(C)c5C)-n5c(C)nnc54)CC3)cc(N3CCOCC3)nc2cc1OCCCN1CCCC1 | – |
| inactive | inactive | COc1cc2c(NC3CCN(CCCC(=O)NCCCCCCNC(=O)C[C@@H]4N=C(c5ccc(Cl)cc5)c5c(sc(C)c5C)-n5c(C)nnc54)CC3)cc(N3CCOCC3)nc2cc1OCCCN1CCCC1 | – |
| inactive | inactive | COc1cc2c(NC3CCN(CCCC(=O)NCCCCCCCNC(=O)C[C@@H]4N=C(c5ccc(Cl)cc5)c5c(sc(C)c5C)-n5c(C)nnc54)CC3)cc(N3CCOCC3)nc2cc1OCCCN1CCCC1 | – |
| Active | inactive | COc1cc2c(NC3CCN(CCCC(=O)NCCCCCCCCCNC(=O)C[C@@H]4N=C(c5ccc(Cl)cc5)c5c(sc(C)c5C)-n5c(C)nnc54)CC3)cc(N3CCOCC3)nc2cc1OCCCN1CCCC1 | – |

More lines, now with the values behind:

| Structure (SMILES) | Activity [1] | Activity [2] | also measured |
| --- | --- | --- | --- |
| COc1cc2c(NC3CCN(CCCC(=O)NCCCNC(=O)C[C@@H]4N=C(c5ccc(Cl)cc5)c5c(sc(C)c5C)-n5c(C)nnc54)CC3)cc(N3CCOCC3)nc2cc1OCCCN1CCCC1 | inactive | inactive | – |
| COc1cc2c(NC3CCN(CCCC(=O)NCCNC(=O)C[C@@H]4N=C(c5ccc(Cl)cc5)c5c(sc(C)c5C)-n5c(C)nnc54)CC3)cc(N3CCOCC3)nc2cc1OCCCN1CCCC1 | inactive | inactive | – |
| COc1cc2c(NC3CCN(CCCC(=O)NCCCCNC(=O)C[C@@H]4N=C(c5ccc(Cl)cc5)c5c(sc(C)c5C)-n5c(C)nnc54)CC3)cc(N3CCOCC3)nc2cc1OCCCN1CCCC1 | inactive | inactive | – |
| COc1cc2c(NC3CCN(CCCC(=O)NCCCCCCCCCCNC(=O)C[C@@H]4N=C(c5ccc(NC(=O)CCOCCOCCOCCOCCOCCOCCNC(=O)CCCC[C@@H]6SC[C@@H]7NC(=O)N[C@@H]76)cc5)c5c(sc(C)c5C)-n5c(C)nnc54)CC3)cc(N3CCOCC3)nc2cc1OCCCN1CCCC1 | – | – | Activity (HT-29 [3]): Active; Activity (HEK293T): Active |
| COc1cc2c(NC3CCN(CCCC(=O)NCCCCCNC(=O)C[C@@H]4N=C(c5ccc(Cl)cc5)c5c(sc(C)c5C)-n5c(C)nnc54)CC3)cc(N3CCOCC3)nc2cc1OCCCN1CCCC1 | inactive | inactive | – |
| COc1cc2c(NC3CCN(CCCC(=O)NCCCCCCCCCCNC(=O)C[C@H]4N=C(c5ccc(Cl)cc5)c5c(sc(C)c5C)-n5c(C)nnc54)CC3)cc(N3CCOCC3)nc2cc1OCCCN1CCCC1 | – | – | Activity [4]: inactive; Activity (HT-29 [5]): inactive; Activity (HT-29 [6]): inactive; Activity (HT-29 [7]): inactive; Activity (HT-29 [8]): inactive; Activity (HT-29 [9]): inactive; Activity (HT-29 [10]): inactive |
| COc1cc2c(N(C)C3CCN(CCCC(=O)NCCCCCCCCCCNC(=O)C[C@@H]4N=C(c5ccc(Cl)cc5)c5c(sc(C)c5C)-n5c(C)nnc54)CC3)cc(N3CCOCC3)nc2cc1OCCCN1CCCC1 | – | – | Activity [4]: inactive; Activity (HT-29 [5]): inactive; Activity (HT-29 [6]): inactive; Activity (HT-29 [7]): inactive; Activity (HT-29 [8]): inactive; Activity (HT-29 [9]): inactive; Activity (HT-29 [10]): inactive |
